According to patent publication EP4595972A1, “PEPTIDE FOR TREATING OR PREVENTING 4R TAUOPATHY” (GemVax & KAEL Co., Ltd., priority 2022, dated 2024):

What was measured:
total tau (Tau5) = assay: Tau immunoblot of brain lysate, insoluble fraction, total tau; assay type: in vivo, mouse; settings: LMTM 15 mg/kg oral vs. vehicle; decrease (in parentheses)
Procedure: • (1) Pellets remaining after moving the supernatant (soluble fraction) were dispersed in 1 mL of 1M sucrose, DNase I (conc. 1 mg/mL) in RIPA buffer. • (2) After centrifugation at 4°C with a speed of 13,000 rpm for 20 minutes, the supernatant was removed. • (3) After resuspension of pellets in 2% SDS solution (1 mL per gram of tissue), the mixture was subjected to incubation at room temperature for 1 hour. • (4) After centrifugation at room temperature with a speed of 13,000 rpm for 1 minute, the supernatant (insoluble fraction) was collected and moved to a new ep-tube, and the same amount of 2X SDS Laemmli sample buffer (w/ 2.5% β-mercaptoethanol for reducing condition) was added thereto. • (5) The sample was boiled at 97°C for 5 minutes. […]

TauP301L-BiFC mice = assay: Novel object recognition test (cognitive ability) in 4R TauP301L-BiFC mouse model; assay type: in vivo; settings: LMTM 15 mg/kg; mice administered 62 times; FIG. 3
Procedure: • (1) On day 1, adaptation training to a new open space was conducted. After an adaptation time for two similar objects added to the corresponding open space on day 2, an experiment to evaluate a cognitive ability to the newly replaced object on day 3 was conducted. • (2) 1 hour before the experiment, a time for adaptation of experimental mice in a space wherein the behavior experiment is conducted, should be ensured. • (3) On day 1, after exposing the experimental mouse to an open space in a size of 40 x 40 cm, the mouse was subjected to behavior assessment for 10 minutes. • (4) On day 2, two similar objects were placed in the same open space, followed by enabling the mouse to learn the objects for 10 minutes. • (5) On day 3, one among the two objects learned in the same open space was replaced with a new object. At this time, a cognitive ability to the replaced object was evaluated.
Results of evaluating the cognitive ability improvement efficacy through a novel object recognition test in the 4R TauP301L-BiFC mouse model were shown in FIG. 3. The experiment was conducted using the TauP301L-BiFC mouse model including 7- to 12-month-old mice administered with the drug for 5 months. […] The obtained results were analyzed through bidirectional ANOVA using Sidak's multiple comparisons test (*p<0.05; ***p<0.0001).

mouse Tau (mTau) = assay: Tau immunoblot of brain lysate, soluble fraction, mTau; assay type: in vivo; settings: LMTM 15 mg/kg oral vs. vehicle, decrease (in parentheses)
Procedure: • (1) After completing administration, the mice of TauP301L-BiFC mouse model were anesthetized, followed by preparing heart laparotomy. • (2) Saline was introduced to the heart of each mouse in the TauP301L-BiFC mouse model, followed by removing vivo blood using a perfusion pump machine. • (3) After removing the blood, the brain was extracted and weighed. • (4) 1 mL RIPA buffer (w/protease/phosphatase inhibitor cocktail) was added to the extracted brain, followed by homogenization. • (5) After moving the homogenized brain lysate to an ep-tube, it was subjected to incubation in 4°C orbital shaker for 2 hours. • (6) After centrifugation at 4°C with a speed of 13,000 rpm for 20 minutes, the supernatant (soluble fraction) was collected in a new ep-tube and stored at -80°C • (7) In order to prepare an immunoblot sample, the concentration of a soluble fraction sample was quantified by Bradford protein quantification method. • (8) To each sample, RIPA buffer and 4X SDS Laemmli sample buffer (w/ 2.5% β-mercaptoethanol for reducing condition) were added to reach a final concentration of 2 mg/mL. • (9) The sample was boiled at 97°C for 5 minutes. […]

[1] = reported in Kim et al., Exp. Mol. Med. 55, 612-627 (2023); read-out: GI50 (cytotoxicity side effects); cited from earlier work

Structure (SMILES): CN(C)c1ccc2c(c1)Sc1cc(N(C)C)ccc1N2.CS(=O)(=O)O.CS(=O)(=O)O [LMTM]
- Insoluble fraction, Total tau (total tau (Tau5)): (42%)
- cognitive ability for the new object (novel object recognition test), in words (TauP301L-BiFC mice): significantly improved
- Soluble fraction, Phosphorylated tau, mTau (pS199) (mouse Tau (mTau); ***p<0.001): (34%)** *
- Soluble fraction, Total tau, mTau (mouse Tau (mTau); **p<0.01): (24%)**
- Soluble fraction, Phosphorylated tau, mTau (pS396) (mouse Tau (mTau); *p<0.05): (27%)*
- GI50 [1]: 6.4 ± 0.3 µM
